{
  "source": "patent US6352979B1",
  "about": "“Method of treating snakebite and complications resulting therefrom” (priority 2001, dated 2002)",
  "origin": "cited, not measured here",
  "key": {"mice": {"test_system": "mice", "settings": "doses higher than 3750 mg/kg (accepted oral LD50 for common table salt)"}, "dogs": {"test_system": "dogs", "settings": "doses higher than 3750 mg/kg (accepted oral LD50 for common table salt)"}, "humans": {"test_system": "humans", "settings": "doses exceeding 40 g/m^2"}},
  "data": [
    {"compound": "O=S(=O)([O-])CCSSCCS(=O)(=O)[O-].[Na+].[Na+]", "note": "[Dimesna, disodium 2,2′-dithiobis ethane sulfonate]", "values": [
      {"measurement": "adverse effects after intravenous administration", "setting": "mice", "value": "no adverse effects"},
      {"measurement": "adverse effects after intravenous administration", "setting": "dogs", "value": "no adverse effects"},
      {"measurement": "adverse effects after administration to humans", "setting": "humans", "value": "no adverse effects"}
    ]},
    {"compound": "[Cl-].[Na+]", "note": "[common table salt]", "values": [
      {"measurement": "accepted oral LD50", "value": 3750, "unit": "mg/kg"}
    ]}
  ]
}
